The values below come from patent US10059722B2, “Cephalosporin derivatives and methods of use” (priority 2012, dated 2018).

Converted amounts (≈) assume the structure as drawn. “Also recorded” adds a separate entry of the source. Like-named read-outs stand apart in the source and are kept apart here.

Data set [1] has as its system replicating M. tuberculosis. Kind of data set: MIC under replication (R) conditions. The data set is classed as cell-based, Mycobacterium tuberculosis. Particulars: for MIC: Mycobacterium tuberculosis.
Data set [2] relates to non-replicating M. tuberculosis. Kind of data set: microbe, parasite or virus in culture. The format is cell-based, Mycobacterium tuberculosis. Particulars: for MIC: Mycobacterium tuberculosis.
The subject of another data set is HepG2 cells. The format is cell-based. Particulars: human, 2 day. Here is the method:
Three lead compounds were identified in the first round of high throughput screening (700 compounds), which had minimal inhibitory concentrations (MIC) of 0.4-0.8 μg/mL after a six day exposure to drug (NRd6) in the model of non-replication at pH 5.0, and LD50's of 100 to >100 μg/mL against HepG2 cells (a 2 day exposure).
Furthermore, LD50 values were determined using a human hepatoma cell line (HepG2) using intracellular ATP levels as a measurement that correlated with cellular viability.

Another data set relates to Staphylococcus aureus. As to the kind of experiment: Antibiotic spectrum: Staphylococcus aureus. The format is cell-based. The note with it: Gram positive, replicating conditions, n=1 experiment; for MIC: Staphylococcus aureus, read-out: MIC against Staphylococcus aureus.
The next data set relates to Escherichia coli. Kind of data set: Antibiotic spectrum: Escherichia coli. The format is cell-based. The note with it: Gram negative, replicating conditions, n=1 experiment; for MIC: Escherichia coli, read-out: MIC against Escherichia coli.
In a further data set the test system is Pseudomonas aeruginosa. Kind of data set: Antibiotic spectrum: Pseudomonas aeruginosa. The data set is classed as cell-based. Particulars: Gram negative, replicating conditions, n=1 experiment; for MIC: Pseudomonas aeruginosa, read-out: MIC against Pseudomonas aeruginosa.
The test system of a further data set is Streptococcus. Kind of data set: Antibiotic spectrum: Streptococcus. The data set is classed as cell-based. The note with it: Gram positive, replicating conditions, n=1 experiment; for MIC: Streptococcus, read-out: MIC against Streptococcus.
Another data set concerns Candida albicans. Kind of data set: Activity against fungus Candida albicans. The format is cell-based. Particulars: pH 5.0. The method, then:
In addition, activity was tested against the fungus Candida albicans at pH 5.0.

In data set [3] the test system is wild-type Mtb infecting murine bone marrow-derived macrophages. As to the kind of experiment: Killing of Mtb infecting bone marrow-derived macrophages (FIG. 2). The data set is classed as cell-based, Mycobacterium tuberculosis. Particulars: 100 μg/mL.
For data set [4], the system named is non-replicating wild-type Mycobacterium tuberculosis (Mtb). Kind of data set: CFU-based cidal assay, non-replicating wild-type Mtb (FIG. 1). The data set is classed as cell-based.
Data set [5] deals with murine bone marrow-derived macrophages. Kind of data set: Toxicity to macrophages by visual inspection. Particulars: 100 μg/mL; visual inspection at 400× magnification.
The mark [6] stands for this setting: 72 h, Table 9, 3 Day Exposure to Drug, read-out: MIC NR 0.01 Inoc.
[7] abbreviates: 72 h, Table 9, 3 Day Exposure to Drug, read-out: MIC NR 0.1 Inoc.
Setting [8] is: 72 h, pH 5, Table 2, library samples (purity approximately 75%), read-out: MIC NR pH 5.0, day 3 exposure.
Where [9] appears, read: 144 h, pH 5, Table 2, library samples (purity approximately 75%), read-out: MIC NR pH 5.0, day 6 exposure.
The mark [10] stands for this setting: pH 5, read-out: MIC NR pH 5, D3 exposure.
[11] abbreviates: pH 5, read-out: MIC NR pH 5, D6 exposure.
The mark [12] stands for this setting: read-out: MIC NR at 0.01 Inoc. and 3 Day Exposure to Drug, 7 Day Outgrowth, Table 8, ranges from multiple assays.
The mark [13] stands for this setting: read-out: MIC NR at 0.01 Inoc. and 3 Day Exposure to Drug, 11 Day Outgrowth, Table 8, ranges from multiple assays.

As to `CC1=C(C(=O)O)N2C(=O)[C@@H](NC(=O)CCc3ccccc3Cl)[C@H]2SC1` [Compound 116], the MIC in [1] (Table 9, read-out: MIC R) is above 100 µg/mL; in data set [2] (setting [6]), above 100 µg/mL; in data set [2] (setting [7]), above 100 µg/mL. In the data set on HepG2 cells, the “HepG2 LD50” value was above 100 µg/mL.
With `CC1=C(C(=O)O)N2C(=O)[C@@H](NC(=O)COc3ccccc3)[C@H]2SC1` [Compound 109], the MIC in data set [1] (Table 9, read-out: MIC R) is above 100 µg/mL; in data set [2] (setting [6]), 100 µg/mL (≈ 287 µM); in [2] (setting [7]), above 100 µg/mL. For the same compound, the “HepG2 LD50” value in the data set with HepG2 cells is above 100 µg/mL.
`CCCNC(=O)C1=C(C)CS[C@@H]2[C@H](NC(=O)CCc3ccc(OC)cc3)C(=O)N12` [Compound 117]: the MIC is above 100 µg/mL in [1] (Table 9, read-out: MIC R); 100 µg/mL (≈ 240 µM) in [2] (setting [6]); above 100 µg/mL in [2] (setting [7]). In addition, the “HepG2 LD50” value in the data set on HepG2 cells is above 100 µg/mL.
For `CCCCOc1ccc(CCC(=O)N[C@@H]2C(=O)N3C(C(=O)O)=C(C)CS[C@H]23)cc1` [Compound 110], the MIC in [1] (Table 9, read-out: MIC R) was 100 µg/mL (≈ 239 µM); in data set [2] (setting [6]), 100 µg/mL (≈ 239 µM); in data set [2] (setting [7]) it was above 100 µg/mL. Moreover, in the data set with HepG2 cells, the “HepG2 LD50” value is above 100 µg/mL.
For the compound `CC1=C(C(=O)O)N2C(=O)[C@@H](NC(=O)CCc3ccc(Br)cc3)[C@H]2SC1` [Compound 111], the MIC in data set [1] (Table 9, read-out: MIC R) was 100 µg/mL (≈ 235 µM); in [2] (setting [6]) it was above 100 µg/mL; in data set [2] (setting [7]), above 100 µg/mL. In the data set with HepG2 cells, the “HepG2 LD50” value was above 100 µg/mL.
Consider `CCCN[C@@H]1C(=O)N2C(C(=O)OCCC)=C(C)CS[C@H]12` [Compound 11c, (6R,7R)-propyl 3-methyl-8-oxo-7-(propylamino)-5-thia-1-azabicyclo[4.2.0]oct-2-ene-2-carboxylate], for which the MIC in data set [1] (pH 6.6, read-out: MIC pH 6.6, R cells) is above 100 µg/mL; in the data set with Staphylococcus aureus it was above 100 µg/mL; in the data set on Escherichia coli it was above 100 µg/mL; in data set [2] (setting [8]), 6.3 µg/mL (≈ 21.1 µM); in data set [2] (setting [9]) it was 1.6 µg/mL (≈ 5.36 µM); in [2] (setting [10]), 1.6 µg/mL (≈ 5.36 µM). For the same compound, the MIC was 0.4 µg/mL (≈ 1.34 µM) in data set [2] (setting [11]); 0.39 to 0.78 µg/mL (≈ 1.31 to 2.61 µM) in [2] (setting [12]); 0.78 µg/mL (≈ 2.61 µM) in [2] (setting [13]); above 100 µg/mL with Pseudomonas aeruginosa; above 100 µg/mL in the data set with Streptococcus. In addition, the “MIC against Staphylococcus aureus” value in the data set with Staphylococcus aureus was above 100 µg/mL. Further, the “MIC against Escherichia coli” value in the data set with Escherichia coli is above 100 µg/mL. In data set [2], the “selectivity index (LD50/MIC-NRd6)” value stood at 129. The “MIC against Pseudomonas aeruginosa” value in the data set on Pseudomonas aeruginosa is above 100 µg/mL. In addition, in the data set with Streptococcus, the “MIC against Streptococcus” value is above 100 µg/mL. Further, in the data set on HepG2 cells, the “HepG2 Toxicity LD50” value is given as 100−>100. The compound also gave a HepG2 toxicity in the data set on HepG2 cells above 100 µg/mL.
Take `CCCOC(=O)C1=C(C)CS[C@@H]2[C@H](NC(=O)OCc3ccccc3)C(=O)N12` [Compound 13]: the MIC was above 100 µg/mL in data set [1] (pH 6.6, Table 3, resynthesized to >95% purity, read-out: MIC pH 6.6, R cells); above 100 µg/mL in the data set with Staphylococcus aureus; above 100 µg/mL in the data set on Escherichia coli; above 100 µg/mL in the data set on Candida albicans; 6.3 µg/mL (≈ 16.1 µM) in data set [2] (setting [8]); below 0.39 µg/mL in data set [2] (setting [9]). The MIC is 1.6 µg/mL (≈ 4.1 µM) in [2] (setting [10]); 0.8 µg/mL (≈ 2.05 µM) in data set [2] (setting [11]); 0.2 to 0.39 µg/mL (≈ 0.512 to 0.999 µM) in data set [2] (setting [12]); 0.39 to 0.78 µg/mL (≈ 0.999 to 2 µM) in [2] (setting [13]); above 100 µg/mL in the data set on Pseudomonas aeruginosa; above 100 µg/mL in the data set with Streptococcus. Besides, the “MIC against replicating Mtb in presence or absence of clavulanic acid” value in [1] (with vs without clavulanic acid) is on record as “identical”. In addition, the “MIC against Staphylococcus aureus” value with Staphylococcus aureus was above 100 µg/mL. Also, in the data set with Escherichia coli, the “MIC against Escherichia coli” value is above 100 µg/mL. Moreover, the “killing of wild-type Mtb infecting macrophages” value in data set [3] was “kills”. Further, in data set [3] (+50 ng/mL IFNγ vs −IFNγ), the “increased killing in IFNγ-activated BMDMs versus unactivated” value is on record as “approximately 0.5 log10”. For the same compound, the “killing of intracellular Mtb, log10 reduction of CFU” value in data set [3] (activated macrophages, MOI 5, two independent experiments) is recorded as around 1.5 log10. In addition, the “MIC against Pseudomonas aeruginosa” value with Pseudomonas aeruginosa is above 100 µg/mL. Further, in the data set with Streptococcus, the “MIC against Streptococcus” value was above 100 µg/mL. Further, the “HepG2 Toxicity LD50” value in the data set with HepG2 cells is 100 µg/mL. The HepG2 toxicity in the data set on HepG2 cells turned out to be 100 µg/mL. Further, the “surviving Mtb (limit of detection)” value in data set [4] (10 μg/mL, 7 days at 1% O2, OD580 0.01, 7H11-OADC agar) is recorded as below 100 colony forming units. Also, the “effect of clavulanate on killing of non-replicating Mtb” value in [4] (NR conditions, 7 days, presence or absence of clavulanate) is on record as “clavulanate-independent; also recorded: not detected”. Also, the “cidality against non-replicating wild-type Mtb” value in [4] (starting inoculum 0.01) is “cidal activity; also recorded: significant cidality”. For the same compound, the “toxicity to the macrophages” value in data set [5] was “no toxicity”.
Consider `COc1ccc(CCC(=O)N[C@@H]2C(=O)N3C(C(=O)O)=C(C)CS[C@H]23)cc1` [Compound 108], for which the MIC in data set [1] (Table 9, read-out: MIC R) was above 100 µg/mL; in [2] (setting [6]), above 100 µg/mL; in data set [2] (setting [7]) it was above 100 µg/mL. The “HepG2 LD50” value in the data set on HepG2 cells was above 100 µg/mL.
